Data set [1] in a line: Equilibrium solubility in SMEDDS formulation. It counts as physicochemical. The conditions noted are these: in SMEDDS (Cremophor EL, Carbitol, Captex 355); room temperature overnight.
The conditions of data set [2]: cited from earlier work.
For data set [3] the following is noted: cited from earlier work. The source holds these as a separate data set.
The subject of data set [4] is UGT (curcumin glucuronidation, mouse liver microsomes). Briefly: Inhibition of curcumin glucuronidation in mouse liver microsomes. The format is biochemical. The following applies: inhibitor up to 10 μM, curcumin 1 μM.
Data set [5] can be described thus: Oral pharmacokinetic studies in mice. It counts as in vivo, mouse. The following applies: silibinin 100 mg/kg with curcumin 100 mg/kg in SMEDDS.

Here are results for six compounds from publication PMC4240011 (Drug delivery and translational research, 2014).

Molecules are shown by their SMILES.

Take `COc1cc(/C=C/C(=O)CC(=O)/C=C/c2ccc(O)c(OC)c2)ccc1O` [Curcumin]: the Solubility in data set [1] is recorded as 51.5 mg/g. In addition, in data set [2], the solubility in water was ~ 2 ng/mL. For the same compound, the bioavailability in data set [3] is on record as less than 2%.

As to `O=C(O[C@@H]1Cc2c(O)cc(O)cc2O[C@@H]1c1cc(O)c(O)c(O)c1)c1cc(O)c(O)c(O)c1` [EGCG, epigallocatechin gallate], in data set [4], the “effect on curcumin glucuronidation / UGT activity (in words)” value is on record as “slightly increased UGT activity”.

Turning to `O=C(/C=C/C=C/c1ccc2c(c1)OCO2)N1CCCCC1` [Piperine, piperine], in data set [1], the Solubility was determined as 45.2 mg/g. The “effect on curcumin glucuronidation / UGT activity (in words)” value in data set [4] is recorded as “no inhibitory effect”. `O=c1c(O)c(-c2ccc(O)c(O)c2)oc2cc(O)cc(O)c12` [Quercetin, quercetin] yielded a Solubility in data set [1] of 34.4 mg/g. In turn, `COc1cc(C2Oc3cc([C@H]4Oc5cc(O)cc(O)c5C(=O)[C@@H]4O)ccc3OC2CO)ccc1O` (stereo partly shown) [Silibinin, silibinin] showed a Solubility in data set [1] of 32.8 mg/g. Also, in data set [5], the “time of peak silibinin plasma concentration” value was 30 min. In the case of `O=C(O)c1ccccc1O` [salicylic acid], in data set [4], the “effect on curcumin glucuronidation / UGT activity (in words)” value is “slightly increased UGT activity”.
